Measured values taken from paper PMC2806265, “Divergence of allosteric effects of rapacuronium on binding and function of muscarinic receptors” (BMC Pharmacology, 2009).
Marks after values point to notes of the source that are not given here.

Tests used:
[1] = biological target: T1, M3 muscarinic receptor (Homo sapiens, UniProt P20309); assay type: biochemical; conditions: CHO-M3 membranes
T1 construct: host or cells: CHO cells, stably transfected; membranes
From the text: Time course of association(6) [drawing 6]
y, radioligand binding at time x; kobs, observed rate of association; equilibrium binding Beq = Bottom + Span.

[2] = biological target: T2, M2 muscarinic receptor (Homo sapiens, UniProt P08172); experiment: [3H]NMS dissociation
T2 sequence (P08172 1-466): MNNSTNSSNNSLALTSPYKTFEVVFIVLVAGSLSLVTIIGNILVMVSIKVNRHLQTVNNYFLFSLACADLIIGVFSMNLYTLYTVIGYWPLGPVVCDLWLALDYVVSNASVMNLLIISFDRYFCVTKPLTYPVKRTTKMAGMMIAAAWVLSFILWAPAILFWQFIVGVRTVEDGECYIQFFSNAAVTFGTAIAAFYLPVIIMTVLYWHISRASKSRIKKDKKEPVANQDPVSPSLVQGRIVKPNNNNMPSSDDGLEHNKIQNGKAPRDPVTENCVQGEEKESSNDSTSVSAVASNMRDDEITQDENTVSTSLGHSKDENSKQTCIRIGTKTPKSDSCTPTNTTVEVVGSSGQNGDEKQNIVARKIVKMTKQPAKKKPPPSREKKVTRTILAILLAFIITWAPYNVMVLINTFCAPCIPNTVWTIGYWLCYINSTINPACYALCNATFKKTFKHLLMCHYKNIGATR
From the text: (§3) y, radioligand binding at time x normalized to binding at time 0; koff1 and koff2, dissociation rate constants; f2, fraction of binding site with dissociation rate constant koff2. When both Eq. 7a and 7b were fitted to data the better fit was chosen based on sum of squares F-test and runs test.

[3] = biological target: T3, M4 muscarinic receptor (Homo sapiens, UniProt P08173); experiment: [3H]NMS dissociation; conditions: + 100 μM rapacuronium
T3 sequence (P08173 1-479): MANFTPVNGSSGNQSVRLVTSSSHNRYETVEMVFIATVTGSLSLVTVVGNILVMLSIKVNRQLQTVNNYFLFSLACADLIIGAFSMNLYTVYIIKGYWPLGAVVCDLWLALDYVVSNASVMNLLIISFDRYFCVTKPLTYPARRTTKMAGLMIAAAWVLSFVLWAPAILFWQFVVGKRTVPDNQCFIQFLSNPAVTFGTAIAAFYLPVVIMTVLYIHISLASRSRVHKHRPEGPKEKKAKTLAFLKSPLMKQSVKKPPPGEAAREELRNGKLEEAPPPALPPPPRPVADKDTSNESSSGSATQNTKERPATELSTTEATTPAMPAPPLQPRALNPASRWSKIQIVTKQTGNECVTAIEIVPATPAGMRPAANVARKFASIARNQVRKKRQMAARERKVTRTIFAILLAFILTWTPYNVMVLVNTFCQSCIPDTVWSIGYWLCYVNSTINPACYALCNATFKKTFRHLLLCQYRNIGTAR
From the text: as §3

[4] = biological target: T3, M4 muscarinic receptor; experiment: [3H]ACh saturation binding; design: host or cells: CHO cells, stably transfected; membranes
From the text: (§1) BMAX, maximum binding capacity; KD, equilibrium dissociation constant.

[5] = biological target: T4, M5 muscarinic receptor (Homo sapiens, UniProt P08912); experiment: [3H]ACh saturation binding; design: host or cells: CHO cells, stably transfected; membranes
T4 sequence (P08912 1-532): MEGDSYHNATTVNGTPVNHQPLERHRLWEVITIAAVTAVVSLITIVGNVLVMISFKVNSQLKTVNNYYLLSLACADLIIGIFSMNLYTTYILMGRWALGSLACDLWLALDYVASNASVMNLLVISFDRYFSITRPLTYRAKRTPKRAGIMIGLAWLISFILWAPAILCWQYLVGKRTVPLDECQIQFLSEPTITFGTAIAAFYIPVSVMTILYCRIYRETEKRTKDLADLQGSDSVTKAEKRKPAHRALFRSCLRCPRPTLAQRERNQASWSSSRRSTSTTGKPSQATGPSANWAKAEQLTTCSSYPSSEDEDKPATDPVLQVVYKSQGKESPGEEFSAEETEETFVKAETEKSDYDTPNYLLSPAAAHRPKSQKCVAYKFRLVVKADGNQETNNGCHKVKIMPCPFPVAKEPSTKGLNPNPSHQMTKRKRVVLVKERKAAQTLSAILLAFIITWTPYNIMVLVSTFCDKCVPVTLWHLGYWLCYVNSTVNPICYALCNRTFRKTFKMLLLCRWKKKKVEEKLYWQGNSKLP
From the text: as §1

[6] = biological target: T3, M4 muscarinic receptor; experiment: Effect of rapacuronium on high-affinity 20 nM [3H]ACh binding; design: host or cells: CHO cells, stably transfected; membranes
From the text: (§2) Cooperativity factor greater than 1 denotes negative cooperativity and less than 1 positive cooperativity. Due to its log-normal error distribution factors of cooperativity are expressed as negative logarithms (pα) through the manuscript so negative values denotes negative cooperativity and positive value denotes positive cooperativity.

[7] = biological target: T4, M5 muscarinic receptor; experiment: as above; design: host or cells: CHO cells, stably transfected; membranes
From the text: as §2

[8] = biological target: T2, M2 muscarinic receptor; experiment: as above; design: host or cells: CHO cells, stably transfected; membrane preparation
From the text: as §2

[9] = read-out: pKA of rapacuronium (converted)

T1 sequence (P20309 whole entry): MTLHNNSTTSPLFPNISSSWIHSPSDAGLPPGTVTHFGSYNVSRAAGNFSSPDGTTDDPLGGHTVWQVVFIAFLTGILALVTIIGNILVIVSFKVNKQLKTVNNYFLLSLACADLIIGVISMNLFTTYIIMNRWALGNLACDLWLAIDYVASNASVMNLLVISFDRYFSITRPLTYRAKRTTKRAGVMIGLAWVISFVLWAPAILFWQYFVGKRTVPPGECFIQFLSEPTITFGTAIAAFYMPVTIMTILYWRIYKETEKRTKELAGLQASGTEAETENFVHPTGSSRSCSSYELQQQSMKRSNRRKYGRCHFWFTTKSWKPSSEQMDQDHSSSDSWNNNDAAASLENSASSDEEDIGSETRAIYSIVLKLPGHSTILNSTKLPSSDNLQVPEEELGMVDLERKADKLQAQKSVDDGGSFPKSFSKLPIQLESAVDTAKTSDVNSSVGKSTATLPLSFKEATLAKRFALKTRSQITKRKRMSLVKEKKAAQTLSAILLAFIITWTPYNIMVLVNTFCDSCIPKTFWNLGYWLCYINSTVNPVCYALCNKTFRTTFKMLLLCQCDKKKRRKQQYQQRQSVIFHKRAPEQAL

Compound: C=CC[N+]1([C@H]2C[C@H]3[C@@H]4CC[C@H]5C[C@H](OC(C)=O)[C@@H](N6CCCCC6)C[C@]5(C)[C@H]4CC[C@]3(C)[C@H]2OC(=O)CC)CCCCC1 [rapacuronium]
- effect on rate of [^35S]GTPγS binding ([1]; 1 μM rapacuronium alone): slightly decreased
- increase in [^35S]GTPγS binding at 5 min incubation ([1]; 10 μM ACh + 1 μM rapacuronium): ~5 fold
- observed rate (kobs) of [^35S]GTPγS binding ([1]; 10 μM ACh + 1 μM rapacuronium): 0.166 ± 0.013 min⁻¹
- estimated [^35S]GTPγS equilibrium binding (Beq) ([1]; 10 μM ACh with 1 μM rapacuronium): 9,980 ± 120 cpm per well
- decrease in rate of [^3H]NMS dissociation ([2]; 100 μM rapacuronium): 7 fold
- f2, fraction of sites with faster dissociation ([2]; + 100 μM rapacuronium): 23 ± 5%
- koff1 of [^3H]NMS dissociation ([2]; + 100 μM rapacuronium): 0.026 ± 0.002* min^-1
- koff2 of [^3H]NMS dissociation ([2]; + 100 μM rapacuronium): 0.0127 ± 0.00183 s⁻¹
- f2, fraction of sites with faster dissociation [3]: 6.0 ± 2.0%
- koff1 of [^3H]NMS dissociation [3]: 0.017 ± 0.001* min^-1
- koff2 of [^3H]NMS dissociation [3]: 0.0125 ± 0.00183 s⁻¹
- BMAX of [^3H]ACh ([4]; + 10 μM rapacuronium): 0.54 ± 0.05 fmol/μg of protein
- BMAX of [^3H]ACh ([4]; + 100 μM rapacuronium): 0.47 ± 0.04 fmol/μg of protein
- BMAX of [^3H]ACh ([5]; + 10 μM rapacuronium): 0.33 ± 0.03 fmol/μg of protein
- BMAX of [^3H]ACh ([5]; + 100 μM rapacuronium): 0.34 ± 0.06 fmol/μg of protein
- pα, cooperativity with [^3H]ACh high affinity binding ([6]; M4, negative value = negative cooperativity): -1.51 ± 0.05
- Kd [6, 9]: 3.89 µM
- pα, cooperativity with [^3H]ACh high affinity binding ([7]; M5, negative value = negative cooperativity): -1.34 ± 0.07
- Kd [7, 9]: 12 µM
- pα, cooperativity with [^3H]ACh high affinity binding ([8]; M2, negative value = negative cooperativity): -1.46 ± 0.08
- Kd [8, 9]: 2.82 µM
